Structures can show the parent of a compound that is named as a salt. Where two headings read alike, the source gives them in different places.
Experiments:
Nannochloris sp. = assay: Microplate assay: growth (absorbance 680 nm) and intracellular lipids (Nile Red fluorescence); format: cell-based; settings: for Absorbance (percent increase) / Nile Red percent increase: initial microplate screen, relative to control
Nannochloropsis salina = settings: for Nile Red Fluorescence % Increase / % Inc / % Lipid increase based on Nile red fluorescence intensity / % Increase based on Nile Red Fluorescence Intensity / % change in abs / % in NR fl: N. salina; for Nile Red Fluorescence % Increase: compounds tested at 20 μM, initial screening, p<0.05; for % Inc: increase of lipid production; for % Lipid increase based on Nile red fluorescence intensity: DMSO, t=day 0; for % Increase based on Nile Red Fluorescence Intensity: added t=day 0; for Nile Red percent increase: dose-response microplate screen
[1] = tested on: Phaeodactylum tricornutum; assay: Microplate assay: growth (absorbance 680 nm) and intracellular lipids (Nile Red fluorescence); format: cell-based; settings: for % Inc: increase of lipid production; for % Inc / Nile Red Fluorescence % Increase / % change in abs / % in NR fl: P. tricornutum; for Nile Red Fluorescence % Increase: compounds tested at 200 nM, initial screening, p<0.05
[2] = Nannochloris sp., compounds tested at 200 nM, initial screening, p<0.05
[3] = Nannochloris sp., compounds tested at 20 μM, initial screening, p<0.05
[4] = 200 nM, initial microplate screen, relative to control
[5] = Nannochloris sp., 49 nM, dissolved in water, added t=day 0

With `CC(=O)N1CCN(c2ccc(OC[C@H]3CO[C@](Cn4ccnc4)(c4ccc(Cl)cc4Cl)O3)cc2)CC1` (relative stereo) [Ketoconazole, cis-1-Acetyl-4-[4-[[2-(2,4-dichlorophenyl)-2-(1H-imidazol-1-ylmethyl)-1,3-dioxolan-4-yl]methoxy]phenyl]piperazine] the “Nile Red Fluorescence % Increase” value (Nannochloris sp.; [2]) was 258.9% and the “Nile Red Fluorescence % Increase” value (Nannochloropsis salina) was 32.0%.

In the case of `CN(NO)C1=CC(=O)C(=O)C=C1` [3,4-dephostatin, 4-[(hydroxyamino)-methylamino]cyclohexa-3,5-diene-1,2-dione], the “% increase (lipid production)” value ([1]; 0.0252-165.6 nM (H2O)) is reported as 5-46%, the “% increase (lipid production)” value ([1]; 0.0252-165.6 nM, not marked H2O) is reported as 12-33% and the “% increase (lipid production)” value (Nannochloropsis salina; 0.0252-55.2 nM) is reported as 8-40%. The “% increase (lipid production)” value (Nannochloropsis salina; 0.0252-165.6 nM (H2O)) was 14-72%.

With `Oc1cc(O)c2c(c1)O[C@H](c1ccc(O)c(O)c1)[C@@H](O)C2` [(+)-Catechin, (2R,3S)-2-(3,4-dihydroxyphenyl)-3,4-dihydro-2H-chromene-3,5,7-triol] the “% Inc” value (Nannochloropsis salina; best conc. 39 nM) was 84.21%.

With `O=c1cc(-c2ccc(O)cc2)oc2cc(O)cc(O)c12` [Apigenin, 5,7-Dihydroxy-2-(4-hydroxyphenyl)-4H-1-benzopyran-4-one] the “Absorbance (percent increase)” value (Nannochloris sp.; 20 μM) was −7.3%, the “Nile Red percent increase” value (Nannochloris sp.; 20 μM) was 59.9% and the “Nile Red Fluorescence % Increase” value (Nannochloris sp.; [3]) was 136.7%. For the same molecule, the “Nile Red Fluorescence % Increase” value (Nannochloropsis salina) was 34.3% and the “% Inc” value (Nannochloropsis salina; best conc. 39 nM) was 90.17%.

In the case of `O=C1O[C@H]([C@@H](O)CO)C(O)=C1O` [Ascorbic acid, (2R)-2-[(1S)-1,2-dihydroxyethyl]-3,4-dihydroxy-2H-furan-5-one], the “% Inc” value ([1]; best conc. 10 nM) is reported as 57.28%.

In the case of `CCNc1nc(Cl)nc(NC(C)C)n1` [Atrazane, 1-Chloro-3-ethylamino-5-isopropylamino-2,4,6-triazine], the “Absorbance (percent increase)” value (Nannochloris sp.; 200 nM) is reported as −1.7% and the “Nile Red percent increase” value (Nannochloris sp.; 200 nM) is reported as 86.2%.

In the case of `c1ccc(CNc2ncnc3[nH]cnc23)cc1` [Benzylamino Purine], the “% Inc” value ([1]; best conc. 40 μM) is reported as 120.94%.

With `c1ccc(CNc2ncnc3nc[nH]c23)cc1` [Benzylaminopurine, N-(phenylmethyl)-7H-purin-6-amine] the “Absorbance (percent increase)” value [1, 4] was −14.6%, the “Nile Red percent increase” value [1, 4] was 105.9% and the “Nile Red Fluorescence % Increase” value [1] was 105.9%.

In the case of `O=C1C(Cl)=C(NCCN2CCOCC2)C(=O)c2ncccc21` [CDC25], the “Nile Red Fluorescence % Increase” value (Nannochloris sp.; [2]) is reported as 28.2% and the “Nile Red Fluorescence % Increase” value (Nannochloris sp.; [3]) is reported as 130.9%.

`O=C1NC(=O)c2c1c1c3ccccc3[nH]c1c1[nH]c3cc(Br)ccc3c21` [CDK4 I1, 2-Bromo-12,13-dihydro-5H-indolo[2,3-a]pyrrolo[3,4-c]carbazole-5,7(6H)-dione] was tested, and the “Nile Red percent increase” value ([1]; 40 μM, dose-response microplate screen) was 129%, the “% Inc” value ([1]; best conc. 10 μM) was 68.76% and the “% Lipid increase based on Nile red fluorescence intensity” value (“% Lipid increase based” below) (Nannochloropsis salina; 40 μM) was 49%. The “% Increase based on Nile Red Fluorescence Intensity” value (“% Increase based” below) (Nannochloropsis salina; 40 μM, DMSO delivery) was 49%.

In the case of `CCNc1cc(N[C@H]2CC[C@H](O)CC2)nc(Nc2ccc3c(ccn3Cc3ccccc3)c2)n1` [CDK4 I4, trans-4-((6-(ethylamino)-2-((1-(phenylmethyl)-1H-indol-5-yl)amino)-4-pyrimidinyl)amino)-cyclohexanol], the “Nile Red percent increase” value (Nannochloropsis salina; 40 μM) is reported as 144% and the “% Inc” value (Nannochloropsis salina; best conc. 40 μM) is reported as 144.22%.

In the case of `Cn1c(=O)c2c(ncn2C)n(C)c1=O` [Caffeine, 1,3,7-trimethyl-1H-purine-2,6(3H,7H)-dione], the “Absorbance (percent increase)” value (Nannochloris sp.; 200 nM) is reported as −7.5% and the “Nile Red percent increase” value (Nannochloris sp.; 200 nM) is reported as 60.4%.

`C/C=C/C/C=C/CCC(=O)[C@H]1O[C@H]1C(N)=O` [Cerulenin, (2R,3S)-3-[(4E,7E)-Nona-4,7-dienoyl]oxirane-2-carboxamide] was tested, and the “Absorbance (percent increase)” value (Nannochloris sp.; 200 nM) was −13.2%, the “Nile Red percent increase” value (Nannochloris sp.; 200 nM) was 94.6% and the “Nile Red Fluorescence % Increase” value (Nannochloris sp.; [2]) was 107.9%.

For `O=C(O)CC(O)(CC(=O)O)C(=O)O` [Citric acid, 2-hydroxypropane-1,2,3-tricarboxylic acid], the “Absorbance (percent increase)” value (Nannochloris sp.; 200 nM) was −6.5% and the “Nile Red percent increase” value (Nannochloris sp.; 200 nM) was 55.41%.

With `O=c1ccc2cc(O)c(O)cc2o1` [Esculetin, 6,7-Dihydroxy-2-chromenone] the “% increase (lipid production)” value ([1]; 0.0252-18.4 nM) was 3-79%, the “% increase (lipid production)” value (Nannochloropsis salina; 0.0252-6.13 nM (H2O)) was 5-31 (H2O) % and the “% increase (lipid production)” value (Nannochloropsis salina; 0.0757-55.2 nM, DMSO delivery) was 1-30%. For the same molecule, the “% Lipid increase based” value (Nannochloropsis salina; 6.13 nM) was 62%, the “% Increase based” value (Nannochloropsis salina; 681 pM, DMSO delivery) was 50% and the “% Increase based” value (Nannochloropsis salina; 6.13 nM, DMSO delivery) was 62%.

With `NC(=O)c1cccc(-c2cccc(OC(=O)NC3CCCCC3)c2)c1` [FAAH Inhibitor II, 3′-Carbamoyl-biphenyl-3-yl-cyclohexylcarbamate] the “% Increase based” value (Nannochloris sp.) was 167%, the “% Lipid increase based” value (Nannochloris sp.; Nannochloris sp., 0.6 nM, (water), t=day 0) was 182% and the “% Increase based” value (Nannochloris sp.; Nannochloris sp., 0.2 nM, dissolved in water, added t=day 0) was 145%. The “% Increase based” value (Nannochloris sp.; Nannochloris sp., 0.6 nM, dissolved in water, added t=day 0) was 182%, the “% Increase based” value (Nannochloris sp.; [5]) was 154% and the “% Increase based” value (Nannochloris sp.; Nannochloris sp., 1.3 μM, dissolved in water, added t=day 0) was 144%.

`O=c1c(-c2ccc(O)cc2)coc2cc(O)cc(O)c12` [Genistein, 5,7-Dihydroxy-3-(4-hydroxyphenyl)chromen-4-one] was tested, and the “% increase (lipid production)” value ([1]; 54 nM-40 μM (H2O)) was 16-70% and the “% increase (lipid production)” value (Nannochloropsis salina; […]-40 μM) was 11-85%.

In the case of `C=C1C[C@]23C[C@@]1(O)CC[C@H]2[C@@]12C=C[C@H](O)[C@@](C)(C(=O)O1)[C@H]2[C@@H]3C(=O)O` [Giberellic acid, (3S,3aS,4S,4aS,6S,8aR,8bR,11S)-6,11-Dihydroxy-3-methyl-12-methylene-2-oxo-4a,6-ethano-3,8bprop-1-enoperhydroindeno[1,2-b]furan-4-ca], the “Absorbance (percent increase)” value (Nannochloris sp.; 200 nM) is reported as −1.1% and the “Nile Red percent increase” value (Nannochloris sp.; 200 nM) is reported as 70.4%.

In the case of `CC(C)Cc1ccc(C(C)C(=O)O)cc1` (stereo not shown) [Ibuprofen], the “Nile Red Fluorescence % Increase” value (Nannochloris sp.; [3]) is reported as 80.2% and the “Nile Red Fluorescence % Increase” value (Nannochloropsis salina) is reported as 59.0%.

In the case of `COc1ccc2c(c1)c(CC(=O)O)c(C)n2C(=O)c1ccc(Cl)cc1` [Indomethacin, 1-(4-Chlorobenzoyl)-5-methoxy-2-methyl-3-indoleacetic acid], the “% Increase based” value (Nannochloris sp.; [5]) is reported as 81%, the “Nile Red percent increase” value (Nannochloropsis salina; 55 nM) is reported as 118% and the “% Lipid increase based” value (Nannochloropsis salina; 123.5 nM) is reported as 61%. The “% Increase based” value (Nannochloropsis salina; 123.5 nM, DMSO delivery) was 61%.

`O=C(Oc1ccc([N+](=O)[O-])cc1)N1CCC(C(O)(c2ccc3c(c2)OCO3)c2ccc3c(c2)OCO3)CC1` [JZL 184 hydrate, 4-nitrophenyl-4-[bis(1,3-benzodioxol-5-yl)(hydroxy)methyl]piperidine-1-carboxylate] was tested, and the “% change in abs” value (Nannochloropsis salina; 3.3 μM) was −12.15%, the “% in NR fl” value (Nannochloropsis salina; 3.3 μM) was 95.70% and the “% change in abs” value (Nannochloropsis salina; 10 μM) was 13.75%. For the same molecule, the “% in NR fl” value (Nannochloropsis salina; 10 μM) was 86.72%, the “% change in abs” value (Nannochloropsis salina; 40 μM) was 0.61% and the “% in NR fl” value (Nannochloropsis salina; 40 μM) was 118.99%. For the same molecule, the “% Lipid increase based” value (Nannochloropsis salina; 40 μM) was 119% and the “% Increase based” value (Nannochloropsis salina; 40 μM, DMSO delivery) was 119%.

In the case of `CC/C=C\C[C@H]1C(=O)CC[C@@H]1CC(=O)O` [Jasmonic acid, (1R,2R)-3-Oxo-2-(2Z)-2-pentenyl-cyclopentaneacetic acid], the “Absorbance (percent increase)” value (Nannochloris sp.; 200 nM) is reported as −7.6%, the “Nile Red percent increase” value (Nannochloris sp.; 200 nM) is reported as 87.5% and the “Nile Red Fluorescence % Increase” value (Nannochloris sp.; [2]) is reported as 80.5%.

With `O=C1Cc2c([nH]c3ccc(Br)cc23)-c2ccccc2N1` [Kenpaulllone] the “Nile Red Fluorescence % Increase” value (Nannochloris sp.; [2]) was 84.2%.

With `O=C1Cc2c([nH]c3ccc(Br)cc23)-c2ccccc2N1` [Kenpaullone, 9-Bromo-7,12-dihydro-indolo[3,2-d][1]benzazepin-6(5H)-one] the “Absorbance (percent increase)” value (Nannochloris sp.; 200 nM) was −8.1%, the “Nile Red percent increase” value (Nannochloris sp.; 200 nM) was 77.5% and the “Nile Red Fluorescence % Increase” value (Nannochloris sp.; [3]) was 97.7%. For the same molecule, the “Nile Red Fluorescence % Increase” value (Nannochloropsis salina) was 34.8%.

For `c1coc(CNc2ncnc3nc[nH]c23)c1` [Kinetin, N^6-furfuryladenine], the “Nile Red Fluorescence % Increase” value [1] was 25.2%, the “% Inc” value ([1]; best conc. 39 nM) was 76.29% and the “Absorbance (percent increase)” value (Nannochloris sp.; 200 nM) was −9.0%. The “Nile Red percent increase” value (Nannochloris sp.; 200 nM) was 72.4%.

With `COc1ccc2[nH]cc(CCNC(C)=O)c2c1` [Melatonin, N-Acetyl-5-methoxytryptamine] the “% Inc” value ([1]; best conc. 40 μM) was 47.80%.

For `CC/C=C\CC1C(=O)CCC1CC(=O)OC` (stereo not shown) [Methyl jasmonate], the “% Lipid increase based” value (Nannochloropsis salina; 13 nM) was 85% and the “% Increase based” value (Nannochloropsis salina; 13 nM, DMSO delivery) was 85%.

In the case of `CCC(C)Nc1ccc(NC(C)CC)cc1` (stereo not shown) [N,N′-di-sec-butyl-p-phenylenediamine, 1-N,4-N-di(butan-2-yl)benzene-1,4-diamine], the “% Inc” value ([1]; best conc. 156 nM) is reported as 39.51%.

With `COc1ccc2cc([C@H](C)C(=O)O)ccc2c1` [Naproxen, (S)-(+)-2-(6-Methoxy-2-naphthyl)propionic acid] the “% Inc” value (Nannochloropsis salina; best conc. 156 nM) was 67.44%.

With `CCCCCCCCCCCCCCCC(=O)C(F)(F)F` [PTFK, 1,1,1-Trifluoro-2-heptadecanone] the “% change in abs” value ([1]; 13 nM) was 3.22%, the “% in NR fl” value ([1]; 13 nM) was 70.44% and the “% change in abs” value ([1]; 41.2 nM) was 5.05%. For the same molecule, the “% in NR fl” value ([1]; 41.2 nM) was 67.59%.

With `O=c1c(O)c(-c2ccc(O)c(O)c2)oc2cc(O)cc(O)c12` [Quercetin, 2-(3,4-dihydroxyphenyl)-3,5,7-trihydroxy-4H-chromen-4-one] the “Absorbance (percent increase)” value (Nannochloris sp.; 200 nM) was −1.6% and the “Nile Red percent increase” value (Nannochloris sp.; 200 nM) was 63.5%.

`CC[C@H](CO)Nc1nc(NCc2ccccc2)c2ncn(C(C)C)c2n1` [Roscovitine] was tested, and the “Nile Red Fluorescence % Increase” value (Nannochloris sp.) was 30.8%.

For `Cc1ncc(C[n+]2csc(CCO)c2C)c(N)n1` [Thiamine, Aneurine hydrochloride, Vitamin B1 hydrochloride], the “Absorbance (percent increase)” value (Nannochloris sp.; 200 nM) was −12.1% and the “Nile Red percent increase” value (Nannochloris sp.; 200 nM) was 122.6%.

In the case of Indole acetic acid, the “Nile Red Fluorescence % Increase” value (Nannochloris sp.) is reported as 95.4%.
